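Cultured in 96-well plates, cells were exposed to test compound for 48 hours across five concentrations. The concentration for full growth arrest is given as TGI.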
Columns and labels:
Experiment in all cases: NCI tumour cell line growth inhibition, 48 h
PC-3 prostate = tested on: PC-3 prostate
NCI-H460 lung = tested on: NCI-H460 lung
OVCAR-5 ovarian = tested on: OVCAR-5 ovarian
A549 NSCLC = tested on: A549 NSCLC
MALME-3M melanoma = tested on: MALME-3M melanoma
HL-60(TB) leukemia = tested on: HL-60(TB) leukemia
EKVX NSCLC = tested on: EKVX NSCLC
NCI/ADR-RES ovarian = tested on: NCI/ADR-RES ovarian
MDA-N = tested on: MDA-N
SNB-19 CNS = tested on: SNB-19 CNS
MCF7 breast = tested on: MCF7 breast
TK-10 renal = tested on: TK-10 renal
RPMI-8226 leukemia = tested on: RPMI-8226 leukemia
IGROV1 ovarian = tested on: IGROV1 ovarian
OVCAR-4 ovarian = tested on: OVCAR-4 ovarian
KM12 colon = tested on: KM12 colon
HS 578T breast = tested on: HS 578T breast
SK-MEL-28 melanoma = tested on: SK-MEL-28 melanoma
RXF 393 renal = tested on: RXF 393 renal
SK-OV-3 ovarian = tested on: SK-OV-3 ovarian
NCI-H226 lung = tested on: NCI-H226 lung
SN12C renal = tested on: SN12C renal
UACC-257 melanoma = tested on: UACC-257 melanoma
CCRF-CEM leukemia = tested on: CCRF-CEM leukemia
MOLT-4 leukemia = tested on: MOLT-4 leukemia
MDA-MB-435 = tested on: MDA-MB-435
HCC-2998 colon = tested on: HCC-2998 colon
SF-295 CNS = tested on: SF-295 CNS
U251 CNS = tested on: U251 CNS
786-0 renal = tested on: 786-0 renal
OVCAR-8 ovarian = tested on: OVCAR-8 ovarian
NCI-H23 lung = tested on: NCI-H23 lung
SK-MEL-5 melanoma = tested on: SK-MEL-5 melanoma
ACHN renal = tested on: ACHN renal
M14 melanoma = tested on: M14 melanoma
OVCAR-3 ovarian = tested on: OVCAR-3 ovarian
A498 renal = tested on: A498 renal
HOP-92 NSCLC = tested on: HOP-92 NSCLC
SF-539 CNS = tested on: SF-539 CNS
COLO 205 colon = tested on: COLO 205 colon
HCT-15 colon = tested on: HCT-15 colon
HCT-116 colon = tested on: HCT-116 colon
BT-549 breast = tested on: BT-549 breast
SW-620 colon = tested on: SW-620 colon
NCI-H522 lung = tested on: NCI-H522 lung
DU-145 prostate = tested on: DU-145 prostate
HT29 colon = tested on: HT29 colon
K-562 leukemia = tested on: K-562 leukemia
UO-31 renal = tested on: UO-31 renal
SK-MEL-2 melanoma = tested on: SK-MEL-2 melanoma
HOP-62 NSCLC = tested on: HOP-62 NSCLC
SNB-75 CNS = tested on: SNB-75 CNS
SF-268 CNS = tested on: SF-268 CNS
UACC-62 melanoma = tested on: UACC-62 melanoma
T-47D breast = tested on: T-47D breast
CAKI-1 renal = tested on: CAKI-1 renal
MDA-MB-231 breast = tested on: MDA-MB-231 breast
LOX IMVI melanoma = tested on: LOX IMVI melanoma
SR leukemia = tested on: SR leukemia

**Q.** How did the TGI (PC-3 prostate) turn out when `C[N+](C)(C)c1ncnc2c1ncn2C1CCCO1` (stereo unspecified) was run?
**A.** Its TGI is over 100 µM.

**Q.** And the TGI (NCI-H460 lung)?
**A.** Its TGI is over 100 µM.

**Q.** What about the TGI (OVCAR-5 ovarian) of the same compound?
**A.** Its TGI is over 100 µM.

**Q.** And the TGI (A549 NSCLC)?
**A.** Its TGI is over 100 µM.

**Q.** And the TGI (MALME-3M melanoma)?
**A.** Its TGI is over 100 µM.

**Q.** What about the TGI (HL-60(TB) leukemia) of the same compound?
**A.** Its TGI is over 100 µM.

**Q.** And the TGI (EKVX NSCLC)?
**A.** Its TGI is over 100 µM.

**Q.** And the TGI (NCI/ADR-RES ovarian)?
**A.** The TGI was over 100 µM.

**Q.** What about the TGI (MDA-N) of the same compound?
**A.** Its TGI is over 100 µM.

**Q.** And the TGI (SNB-19 CNS)?
**A.** Its TGI is over 100 µM.

**Q.** What about the TGI (MCF7 breast) of the same compound?
**A.** Its TGI is over 100 µM.

**Q.** What about the TGI (TK-10 renal) of the same compound?
**A.** Its TGI is over 100 µM.

**Q.** What about the TGI (RPMI-8226 leukemia) of the same compound?
**A.** The TGI was over 100 µM.

**Q.** What about the TGI (IGROV1 ovarian) of the same compound?
**A.** Its TGI is over 100 µM.

**Q.** And the TGI (OVCAR-4 ovarian)?
**A.** Its TGI is over 100 µM.

**Q.** And the TGI (KM12 colon)?
**A.** Its TGI is over 100 µM.

**Q.** What about the TGI (HS 578T breast) of the same compound?
**A.** Its TGI is over 100 µM.

**Q.** What about the TGI (SK-MEL-28 melanoma) of the same compound?
**A.** The TGI was over 100 µM.

**Q.** What about the TGI (RXF 393 renal) of the same compound?
**A.** Its TGI is over 100 µM.

**Q.** And the TGI (SK-OV-3 ovarian)?
**A.** The TGI was over 100 µM.

**Q.** What about the TGI (NCI-H226 lung) of the same compound?
**A.** Its TGI is over 100 µM.

**Q.** What about the TGI (SN12C renal) of the same compound?
**A.** Its TGI is over 100 µM.

**Q.** And the TGI (UACC-257 melanoma)?
**A.** Its TGI is over 100 µM.

**Q.** And the TGI (CCRF-CEM leukemia)?
**A.** The TGI was over 100 µM.

**Q.** What about the TGI (MOLT-4 leukemia) of the same compound?
**A.** The TGI was over 100 µM.

**Q.** And the TGI (MDA-MB-435)?
**A.** Its TGI is over 100 µM.

**Q.** What about the TGI (HCC-2998 colon) of the same compound?
**A.** The TGI was over 100 µM.

**Q.** And the TGI (SF-295 CNS)?
**A.** Its TGI is over 100 µM.

**Q.** What about the TGI (U251 CNS) of the same compound?
**A.** Its TGI is over 100 µM.

**Q.** And the TGI (786-0 renal)?
**A.** Its TGI is over 100 µM.

**Q.** And the TGI (OVCAR-8 ovarian)?
**A.** Its TGI is over 100 µM.

**Q.** What about the TGI (NCI-H23 lung) of the same compound?
**A.** Its TGI is over 100 µM.

**Q.** What about the TGI (SK-MEL-5 melanoma) of the same compound?
**A.** The TGI was over 100 µM.

**Q.** What about the TGI (ACHN renal) of the same compound?
**A.** The TGI was over 100 µM.

**Q.** What about the TGI (M14 melanoma) of the same compound?
**A.** Its TGI is over 100 µM.

**Q.** And the TGI (OVCAR-3 ovarian)?
**A.** Its TGI is over 100 µM.

**Q.** And the TGI (A498 renal)?
**A.** Its TGI is over 100 µM.

**Q.** And the TGI (HOP-92 NSCLC)?
**A.** The TGI was over 100 µM.

**Q.** And the TGI (SF-539 CNS)?
**A.** The TGI was over 100 µM.

**Q.** And the TGI (COLO 205 colon)?
**A.** The TGI was over 100 µM.

**Q.** What about the TGI (HCT-15 colon) of the same compound?
**A.** Its TGI is over 100 µM.

**Q.** What about the TGI (HCT-116 colon) of the same compound?
**A.** Its TGI is over 100 µM.

**Q.** What about the TGI (BT-549 breast) of the same compound?
**A.** Its TGI is over 100 µM.

**Q.** And the TGI (SW-620 colon)?
**A.** The TGI was over 100 µM.

**Q.** And the TGI (NCI-H522 lung)?
**A.** The TGI was over 100 µM.

**Q.** And the TGI (DU-145 prostate)?
**A.** The TGI was over 100 µM.

**Q.** What about the TGI (HT29 colon) of the same compound?
**A.** Its TGI is over 100 µM.

**Q.** And the TGI (K-562 leukemia)?
**A.** Its TGI is over 100 µM.

**Q.** What about the TGI (UO-31 renal) of the same compound?
**A.** The TGI was over 100 µM.

**Q.** And the TGI (SK-MEL-2 melanoma)?
**A.** Its TGI is over 100 µM.

**Q.** And the TGI (HOP-62 NSCLC)?
**A.** Its TGI is over 100 µM.

**Q.** What about the TGI (SNB-75 CNS) of the same compound?
**A.** Its TGI is over 100 µM.

**Q.** What about the TGI (SF-268 CNS) of the same compound?
**A.** Its TGI is over 100 µM.

**Q.** And the TGI (UACC-62 melanoma)?
**A.** The TGI was over 100 µM.

**Q.** And the TGI (T-47D breast)?
**A.** Its TGI is over 100 µM.

**Q.** What does the source list for `CCN(CC)C1Oc2cc3c(cc2C(c2cccc(OC)c2OC)C1C)OCO3` (stereo unspecified)?
**A.** TGI (PC-3 prostate): 24.4 µM; TGI (NCI-H460 lung): 17.7 µM; TGI (OVCAR-5 ovarian): 48.6 µM; TGI (A549 NSCLC): 25.8 µM; TGI (MALME-3M melanoma): 33.5 µM; TGI (CAKI-1 renal): 14.2 µM; TGI (HL-60(TB) leukemia): 4.63 µM; TGI (EKVX NSCLC): 52.3 µM; TGI (MDA-N): 50.5 µM; TGI (SNB-19 CNS): 71.4 µM; TGI (MCF7 breast): 60.8 µM; TGI (TK-10 renal): 46.3 µM; TGI (RPMI-8226 leukemia): 16.4 µM; TGI (IGROV1 ovarian): 29.3 µM; TGI (KM12 colon): 29.5 µM; TGI (MDA-MB-231 breast): 35.4 µM; TGI (HS 578T breast): 28.8 µM; TGI (SK-MEL-28 melanoma): 50.6 µM; TGI (RXF 393 renal): 11.8 µM; TGI (SK-OV-3 ovarian): 58.5 µM; TGI (NCI-H226 lung): 9.24 µM; TGI (SN12C renal): > 100 µM; TGI (UACC-257 melanoma): 24.9 µM; TGI (CCRF-CEM leukemia): 8.48 µM; TGI (MOLT-4 leukemia): 23.7 µM; TGI (MDA-MB-435): 45.6 µM; TGI (HCC-2998 colon): 25.8 µM; TGI (LOX IMVI melanoma): 21.6 µM; TGI (SF-295 CNS): 16.3 µM; TGI (U251 CNS): 32 µM; TGI (786-0 renal): 22.7 µM; TGI (OVCAR-8 ovarian): 22.6 µM; TGI (NCI-H23 lung): 35.7 µM; TGI (SK-MEL-5 melanoma): 21.3 µM; TGI (ACHN renal): 29.5 µM; TGI (M14 melanoma): 46.7 µM; TGI (OVCAR-3 ovarian): 9.97 µM; TGI (A498 renal): 23.3 µM; TGI (SF-539 CNS): 28.2 µM; TGI (COLO 205 colon): 17 µM; TGI (HCT-15 colon): > 100 µM; TGI (HCT-116 colon): 12.8 µM; TGI (SR leukemia): 3.3 µM; TGI (BT-549 breast): 23.6 µM; TGI (SW-620 colon): 77 µM; TGI (NCI-H522 lung): 26.3 µM; TGI (DU-145 prostate): 23.9 µM; TGI (HT29 colon): 24.8 µM; TGI (K-562 leukemia): 14.4 µM; TGI (UO-31 renal): 40.5 µM; TGI (SK-MEL-2 melanoma): 30.2 µM; TGI (HOP-62 NSCLC): 30.2 µM; TGI (SNB-75 CNS): 44.7 µM; TGI (SF-268 CNS): > 100 µM; TGI (UACC-62 melanoma): 30.1 µM; TGI (T-47D breast): 28.5 µM
